According to ChEMBL document CHEMBL6153026, “Small-Molecule Modulators Targeting Coactivator-Associated Arginine Methyltransferase 1 (CARM1) as Therapeutic Agents for Cancer Treatment: Current Medicinal Chemistry Insights and Emerging Opportunities” (J Med Chem, 2025):
Each block holds one compound with its values, some of them ahead of it.

Columns and labels:
[1] = Lipophilicity, logP of compound; type: physicochemical; conditions: octanol/water
[2] = biological target: T1, Histone-arginine methyltransferase CARM1 (Homo sapiens, UniProt Q86X55); test: Inhibition of CARM1 (unknown origin)
T1 sequence (Q86X55 whole entry): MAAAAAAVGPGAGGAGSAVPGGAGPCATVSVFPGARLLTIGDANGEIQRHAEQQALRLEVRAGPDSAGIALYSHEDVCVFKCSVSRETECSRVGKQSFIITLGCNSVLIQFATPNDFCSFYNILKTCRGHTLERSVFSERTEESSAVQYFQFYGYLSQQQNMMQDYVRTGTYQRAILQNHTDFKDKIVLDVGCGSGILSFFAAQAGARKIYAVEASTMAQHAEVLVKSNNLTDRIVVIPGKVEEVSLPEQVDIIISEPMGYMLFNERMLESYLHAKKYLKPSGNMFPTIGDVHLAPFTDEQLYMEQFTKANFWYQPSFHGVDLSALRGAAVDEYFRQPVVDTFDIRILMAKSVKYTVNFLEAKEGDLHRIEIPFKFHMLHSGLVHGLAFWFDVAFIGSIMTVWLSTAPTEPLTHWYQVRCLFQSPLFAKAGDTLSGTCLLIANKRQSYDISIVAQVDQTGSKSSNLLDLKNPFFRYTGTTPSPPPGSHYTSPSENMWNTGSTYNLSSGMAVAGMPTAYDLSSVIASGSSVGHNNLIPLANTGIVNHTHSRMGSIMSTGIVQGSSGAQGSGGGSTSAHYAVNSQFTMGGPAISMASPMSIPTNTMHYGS

[3] = biological target: Protein arginine N-methyltransferase 6 (Homo sapiens, UniProt Q96LA8); test: Inhibition of PRMT6 (unknown origin) by scintillation proximity assay
Chain of Protein arginine N-methyltransferase 6 (Q96LA8 whole entry): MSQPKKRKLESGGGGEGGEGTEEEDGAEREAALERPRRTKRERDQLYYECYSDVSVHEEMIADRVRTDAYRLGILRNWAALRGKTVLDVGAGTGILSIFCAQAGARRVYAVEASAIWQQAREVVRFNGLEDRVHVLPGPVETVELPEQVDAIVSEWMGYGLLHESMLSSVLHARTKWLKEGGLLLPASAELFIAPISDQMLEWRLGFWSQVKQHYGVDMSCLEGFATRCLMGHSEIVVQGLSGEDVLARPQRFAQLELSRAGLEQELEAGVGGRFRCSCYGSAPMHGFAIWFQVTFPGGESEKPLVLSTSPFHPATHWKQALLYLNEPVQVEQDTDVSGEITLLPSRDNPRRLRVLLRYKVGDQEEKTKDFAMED

[4] = biological target: T1, Histone-arginine methyltransferase CARM1; test: Inhibition of GST-tagged CARM1 (unknown origin) extracted form Escherichia coli BL21 (DE3) by MTase-Glo reagent based luminometer analysis
[5] = tested on: MCF7; test: Cytotoxicity against human MCF7 cells assessed as reduction in cell viability by MTS assay; type: functional, cell-based
[6] = biological target: Protein arginine N-methyltransferase 5 (Homo sapiens, UniProt O14744); test: Inhibition of PRMT5 (unknown origin)
Chain of Protein arginine N-methyltransferase 5 (O14744 whole entry): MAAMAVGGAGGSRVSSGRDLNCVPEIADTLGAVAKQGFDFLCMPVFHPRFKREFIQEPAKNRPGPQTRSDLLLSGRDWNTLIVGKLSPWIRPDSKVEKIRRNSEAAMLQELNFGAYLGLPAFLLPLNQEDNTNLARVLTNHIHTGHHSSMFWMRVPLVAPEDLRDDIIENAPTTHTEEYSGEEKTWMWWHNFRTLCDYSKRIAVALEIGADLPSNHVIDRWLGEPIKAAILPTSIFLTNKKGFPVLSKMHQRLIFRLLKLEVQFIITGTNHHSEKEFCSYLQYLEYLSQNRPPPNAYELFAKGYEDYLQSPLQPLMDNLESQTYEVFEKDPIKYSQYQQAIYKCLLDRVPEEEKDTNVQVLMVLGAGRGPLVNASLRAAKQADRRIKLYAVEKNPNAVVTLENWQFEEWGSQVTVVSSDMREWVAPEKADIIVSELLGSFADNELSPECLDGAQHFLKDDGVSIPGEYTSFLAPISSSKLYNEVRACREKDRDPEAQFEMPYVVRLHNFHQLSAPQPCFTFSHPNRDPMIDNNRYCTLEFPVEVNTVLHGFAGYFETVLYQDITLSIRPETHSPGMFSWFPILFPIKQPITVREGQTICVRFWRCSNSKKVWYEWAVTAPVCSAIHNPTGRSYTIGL

[7] = tested on: ASPC1; test: Antitumor activity in human ASPC1 cells xenografted in BALB/c nude mouse assessed as tumor growth inhibition at 100 mg/kg, relative to control; type: functional; design: scale not given: the % may be the effect or the level left
[8] = tested on: DU-145; test: Antiproliferative activity against human DU-145 cells assessed as reduction in cell viability incubated for 72 hrs by MTT assay; type: functional, cell-based; conditions: DU-145, 72 h
[9] = biological target: T1, Histone-arginine methyltransferase CARM1; test: Inhibition of PRMT4 (unknown origin)
[10] = biological target: T1, Histone-arginine methyltransferase CARM1; test: Inhibition of C-terminal His-tagged human CARM1 catalytic domain (135 to 479 residues) extracted from Escherichia coli BL21 CodonPlus (DE3)-RIL cells using (H3(3-31)) as substrate by enzymatic assay
[11] = tested on: MV4-11; test: Antiproliferative activity against human MV4-11 cells assessed as reduction in cell viability; type: functional, cell-based
[12] = species: Homo sapiens; test: Selectivity ratio of IC50 for human PRMT6 to IC50 for human PRMT4
[13] = biological target: T1, Histone-arginine methyltransferase CARM1; test: Inhibition of human N-terminal 6xHis-tagged CARM1 catalytic domain (140 to 480 residues) using histone H3 as substrate and SAM as cofactor by radiometric HotSpot assay
[14] = biological target: Protein arginine N-methyltransferase 3 (Homo sapiens, UniProt O60678); test: Inhibition of PRMT3 (unknown origin)
Chain of Protein arginine N-methyltransferase 3 (O60678 whole entry): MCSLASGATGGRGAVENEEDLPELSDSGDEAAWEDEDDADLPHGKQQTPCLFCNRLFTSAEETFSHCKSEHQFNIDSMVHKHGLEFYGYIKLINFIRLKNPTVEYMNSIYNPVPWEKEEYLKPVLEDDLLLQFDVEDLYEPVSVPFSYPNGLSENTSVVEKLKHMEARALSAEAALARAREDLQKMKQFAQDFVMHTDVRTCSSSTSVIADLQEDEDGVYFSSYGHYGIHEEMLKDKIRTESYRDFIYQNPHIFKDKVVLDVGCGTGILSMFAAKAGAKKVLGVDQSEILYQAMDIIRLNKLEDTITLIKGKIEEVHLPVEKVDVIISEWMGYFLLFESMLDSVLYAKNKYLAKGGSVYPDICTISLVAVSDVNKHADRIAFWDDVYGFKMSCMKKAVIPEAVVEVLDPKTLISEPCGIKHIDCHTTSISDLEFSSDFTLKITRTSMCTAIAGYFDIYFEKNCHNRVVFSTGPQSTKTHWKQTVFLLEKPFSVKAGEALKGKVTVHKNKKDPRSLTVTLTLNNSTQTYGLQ

logP [1]: 3.8
IC50 [2]: 7.23 µM
Compound: C[C@H](N)C(=O)NCc1cccc(-n2cc(C(F)(F)F)cc2C(=O)NCc2ccccc2)c1

Compound: C[S+](CC[C@H](N)C(=O)[O-])C[C@H]1O[C@@H](n2cnc3c(N)ncnc32)[C@H](O)[C@@H]1O (stereo partly drawn) [ADEMETIONINE]
IC50 [2]: 0.0028 µM

IC50 [3]: 0.3 µM
Compound: NCCN1CCC(Cc2ccccc2)CC1

IC50 [4]: 42.2 µM
Compound: CNCC(=O)N1CCOc2c(O)cc(-c3cccc(Cl)c3)cc2C1
IC50 [5]: 8.26 µM

IC50 [6]: 0.00042 µM
Compound: NC(=O)[C@@H](N)CCCNCNCCCSC[C@H]1O[C@H](n2cnc3c(N)ncnc32)[C@H](O)[C@@H]1O

Compound: CNC[C@@H](O)COc1ccc(Cl)c(-c2nc(-c3c(C)noc3C)c(C)c(N3CC4(CCN(C(=O)OC)CC4)C3)n2)c1
Activity [7]: 52%

IC50 [8]: < 1 µM
Compound: CNCCNCc1cccc(-c2nc(Nc3cccc(OCCCCCCC(=O)NO)c3)c(C)c(-c3ccnc4[nH]ccc34)n2)c1

IC50 [9]: 0.06 µM
IC50 [2]: 0.5 µM
Compound: C[C@H](N)C(=O)Nc1ccc2[nH]nc(-c3cccc(S(=O)(=O)N(C)C)c3)c2c1

logP [1]: 4.48
IC50 [2]: 0.78 µM
Compound: CCOC(=O)c1cc(C(=O)NCc2ccccc2CCC(F)(F)F)n(-c2cccc(NC(=O)[C@H](C)N)c2)c1

IC50 [2]: 42.4 µM
Compound: OCCNCCNCc1ccccc1OCc1ccc(Cl)cc1Cl

IC50 [10]: 1.14 µM
Compound: NCCCN(CCCNc1ccccn1)C[C@@H]1O[C@H](n2cnc3c(N)ncnc32)[C@@H](O)[C@H]1O

IC50 [11]: 4.55 µM
Compound: CNCCN(C)Cc1ccccc1OCc1cccc(Cl)c1Cl

Ratio IC50 [12]: 197
Compound: C[C@H](N)C(=O)Nc1ccc2[nH]cc(-c3cccc(S(C)(=O)=O)c3)c2c1

IC50 [13]: 0.043 µM
Compound: COC1CCC(CCNC(=O)[C@H](CC[C@H](CNCc2ccccc2)C[C@H]2O[C@@H](n3cnc4c(N)ncnc43)[C@H](O)[C@@H]2O)NC(=O)CC(C)(C)C2=C(C)C(=O)C(C)=C(C)C2=O)CC1 (stereo partly drawn)

IC50 [10]: 1.11 µM
Compound: Nc1ncnc2c1ncn2[C@H]1O[C@@H](CN(CCCNc2ccccn2)CC[C@H](N)C(=O)O)[C@H](O)[C@@H]1O

Ratio IC50 [12]: > 500
IC50 [2]: < 0.002 µM
Compound: C[C@H](N)C(=O)Nc1ccc2c(c1)c(-c1cccc(S(=O)(=O)N(C)C)c1)cn2C

IC50 [2]: < 0.001 µM
Compound: N=C(NCCCN(CCNC(=O)NCc1ccccc1)C[C@H]1O[C@@H](n2cnc3c(N)ncnc32)[C@H](O)[C@@H]1O)Nc1cccc(Br)c1

IC50 [14]: < 0.005 µM
Compound: Nc1ncnc2c1ncn2[C@@H]1O[C@H](CSCC[C@H](N)C(=O)O)[C@@H](O)[C@H]1O [S-ADENOSYLHOMOCYSTEINE]
